Source: patent US6117890A, “Method for treating bipolar disorder” (Eli Lilly and Company, priority 1998, dated 2000)

Columns and labels:
[1] = biological target: muscarinic receptors (3H-oxotremorine-M binding); assay: 3H-oxotremorine-M binding study; conditions: radioligand 3H-oxotremorine-M; read-out: inhibition constant (Ki) for binding of 3H-oxotremorine-M
[2] = system: m4 receptors (CHO m4 cells); assay: cAMP formation in CHO m4 cells treated with pertussis toxin; type: cell-based
From the text: Muscarinic agonists stimulate the formation of CAMP up to 10 fold in CHO m4 cells treated with pertussisi toxin and the pharmacology is consistent with the mediation by m4 receptors. Eckols K. Soc. Neurosci Abstr., 21:2040 (1995).

Question: For `CCCCCCOc1nsnc1C1=CCCN(C)C1` [xanomeline, 3-(4-hexyloxy-1,2,5-thiadiazol-3-yl)-1,2,5,6-tetrahydro-1-methylpyridine], which Ki [1] is on record?
Answer: 2 nM

Question: What about the “stimulation of formation of cAMP” value [2] of the same compound?
Answer: efficaciously and potently stimulated the formation of cAMP
